Test results from PMC12266748, “A Xanthine Derivative With Novel Heat Shock Protein 90‐Alpha Inhibitory and Senolytic Properties” (Aging Cell, 2025).
Read-outs that look alike come from different tables or passages of the source.

How the values were obtained:
HUVEC = assay: MTT viability of Doxorubicin-induced senescent and non-senescent HUVEC; type: cell-based, Human; settings: for EC50: Homo sapiens
Description: (§1) IMR90 and WI38 lung fibroblasts were purchased from ECACC‐Merck. Human bone marrow (BM)‐derived mesenchymal stromal cells (MSCs) were purchased from Lonza. Human umbilical vein endothelial cells (HUVECs) are primary cells obtained from a pool of donors purchased from Clonetics (Lonza). Murine ear fibroblasts (MearFs) were obtained from C57BL/6J mice maintained in the INRCA “Specific Pathogen Free” (SPF) animal facility. MCF7 breast cancer cells were purchased from ATCC. For dose–response curves, IMR90 and WI38 were induced to senescence through replicative passages; MSCs, HUVECs, and MearFs senescence was induced with Doxorubicin; MCF7 senescence was induced with 4‐Hydroxytamoxifen (Lee et al. [2014]). The EC50 was calculated using GraphPad Prism 10 software. All treatment specifications are reported in the extended section.
(§2) Cell viability was determined using an MTT assay. Absorbance was measured using a NB‐12‐0035 Microplate Reader (NeoBiotech Co.). Data are expressed as a percentage of viability compared with untreated cells.
Human umbilical vein endothelial cells (HUVECs) are primary cells obtained from a pool of donors purchased from Clonetics (Lonza, Stein, Switzerland). HUVECs were cultured in endothelial basal medium (EBM-2, CC-3156, Lonza) supplemented with SingleQuot Bullet Kit (CC-4176, Lonza) containing 0.1% human recombinant epidermal growth factor (rh-EGF), 0.04% hydrocortisone, 0.1% vascular endothelial growth factor (VEGF), 0.4% human recombinant fibroblast growth factor (rh-FGF-B), 0.1% insulin-like growth factor-1 with the substitution of arginine for glutamic acid at position 3 (R3-IGF-1), 0.1% ascorbic acid, 0.1% heparin, 0.1% gentamicin and amphotericin-B (GA-1000), and 2% fetal bovine serum (FBS). The cells were seeded at a density of 5000/cm^2 in T75 flasks (Corning Costar, Sigma Aldrich, St. Louis, MO, USA).
Murine ear fibroblasts (MearFs) were obtained from C57BL/6J mice maintained in the INRCA "Specific Pathogen Free" (SPF) animal facility. The ear biopsies (2 mm radius) were obtained with a dedicated puncher, and cells recovered as previously described (Malavolta et al. 2022). Cells were seeded at a density of 5000/cm^2 in T75 flasks (Corning Costar, Sigma Aldrich, St. Louis, MO, USA) and maintained at 37°C in a 95% humidified incubator with 5% CO2. […]
(§3) Cell viability assay. Cell viability has been determined with MTT (3-(4,5-dimethylthiazol-2-yl)-2, 5-diphenyltetrazolium bromide) assay. […] Insoluble formazan salts produced were solubilized with DMSO incubation, and then absorbance was measured at 540 nm using a microplate reader (NB-12-0035 Microplate Reader, NeoBiotech Co., Seoul, Republic of Korea). Data are expressed as a percentage of viability compared with untreated cells (the control group has been considered 100% of viability).

[1] = tested on: Human mesenchymal stem cells (MSCs); assay: MTT viability of Doxorubicin-induced senescent and non-senescent MSCs; type: cell-based; settings: for EC50: Homo sapiens, Mesenchymal stem cells, MTT
Description: as §1, §2
Human bone marrow (BM)-derived mesenchymal stromal cells (MSCs) were purchased from Lonza (Allendale, NJ, USA) and cultured in α-MEM (Euroclone, Milano, Italy), with 10% fetal bovine serum (FBS, Lonza, Stein, Switzerland), 100 U/mL penicillin, […] streptomycin and 2 mM L-glutamine. Cells were seeded at a density of 5000/cm^2 and maintained at 37°C in a humidified atmosphere with 5% CO2. The culture medium was changed at 48 h intervals, and cells were trypsinized when almost 80% were confluent using 0.25% trypsin-EDTA (Euroclone, Milano, Italy). […]
as §3

Cc1ccccc1-n1c(=O)n(Cc2ccccc2)c(=O)c2[nH]cnc21 [Compound K5, 1-benzyl-3-(2-methylphenyl)-7H-purine-2,6-dione]
Senolytic evidence (no, partly/yes) (HUVEC; DNA damage (Doxorubicin)): No | EC50 (HUVEC; DNA damage (Doxorubicin), MTT, read-out: EC50 senescent cells): > 500 µM | EC50 (HUVEC; MTT, read-out: EC50 proliferating cells): > 500 µM | difference in vitality, DOXO-induced senescent vs non-senescent proliferating cells (HUVEC; MTT): no discernible difference | Senolytic evidence (no, partly/yes) ([1]; DNA damage (Doxorubicin)): Partly | EC50 ([1]; DNA damage (Doxorubicin), read-out: EC50 senescent cells): > 200 µM | EC50 ([1]; read-out: EC50 proliferating cells): > 500 µM
